ChEMBL document CHEMBL1129675, “New directions in antibacterial research” (1996)
≈ marks a conversion by molar mass, not a printed value. Calls of active or inactive are those of the source. No cut-off for these calls is given here. Starred links: 1 amine or outer side, 2 acyl side, 3 side chain; linkers in the order of their positions; H or OH if unused. Positions of bridges follow the written chain, without caps; N, C: chain ends. Non-standard residues stand in square brackets, D forms with d. Residues, ends and D or L forms follow the SMILES beside them. X1 = O=C([C@@H](N[*:1])c1ccc(O[C@H]2OC(CO)[C@@H](O)[C@@H](O)[C@@H]2O[C@H]2O[C@@H](CO)[C@@H](O)[C@H](O)[C@H]2O)cc1)[*:2]; X4 = CC(C)CC/C=C\C=C/C(=O)NC(CC(N)=O)C(=O)CC(C(=O)[*:1])C(O[*:2])C(N)=O; X3 = CCC/C=C\C=C/C(=O)NC(CC(N)=O)C(=O)CC(C(=O)[*:1])C(O[*:2])C(N)=O; Hpg(3-Cl) = N[C@H](C(=O)O)c1ccc(O)c(Cl)c1; Hpg = N[C@H](C(=O)O)c1ccc(O)cc1; Orn = NCCC[C@H](N)C(=O)O

How the values were obtained:
[1] = Inhibitory activity against many clinical relevent pathogen; Range is 5-50 ug/mL; assay type: functional
[2] = Inhibitory activity against Pediococcus species.; assay type: functional
[3] = Inhibitory activity against Leuconostoc species.; assay type: functional
[4] = Inhibitory activity against Lactobacillus species.; assay type: functional; conditions: Bacteria
Enterococcus = experiment: Inhibitory activity against Vancomycin resistant enterococci; assay type: functional
Pasteurella multocida = experiment: Antibacterial activity against Pasteurella multocida; More active; assay type: functional, organism-based
[5] = Antibacterial activity against […] species.; More active; assay type: functional
[6] = Antibacterial activity against Legionella; More active; assay type: functional
Haemophilus influenzae [7] = experiment: Antibacterial activity against Haemophilus influenzae; Active; assay type: functional, organism-based
Streptococcus sp. = experiment: Antibacterial activity against Streptococci; More active; assay type: functional, organism-based
Chlamydia = experiment: Antibacterial activity against Chlamydia; More active; assay type: functional, organism-based
Staphylococcus aureus [8] = experiment: Inhibitory activity against MRSA; assay type: functional
Staphylococcus aureus [9] = experiment: Inhibitory activity against MSSA; assay type: functional
Enterococcus faecium [10] = experiment: Inhibitory activity against Enterococcus faecium; assay type: functional
[11] = test system: Staphylococcus epidermidis; experiment: Inhibitory activity against methicillin-resistant Staphylococcus epidermidis (MRSE); assay type: functional
Haemophilus influenzae [12] = experiment: Inhibitory activity against Haemophilus influenzae; assay type: functional
Streptococcus pneumoniae = experiment: Inhibitory activity against Streptococcus pneumoniae; assay type: functional
Bacteria = experiment: Inhibitory activity against Corynebacterium; assay type: functional
Moraxella catarrhalis = experiment: Inhibitory activity against Moraxella catarrhalis; assay type: functional
[13] = test system: Staphylococcus epidermidis; experiment: Inhibitory activity against methicillin-sensitive Staphylococcus epidermidis (MSSE); assay type: functional
Bacteroides fragilis = experiment: Inhibitory activity against Bacteroides fragilis; assay type: functional
Streptococcus pyogenes = experiment: Inhibitory activity against Streptococcus pyogenes; assay type: functional
[14] = Inhibitory activity against VanB enterococci; Range is 0.016-1 ug/mL; assay type: functional
Enterococcus faecium [15] = experiment: Inhibitory activity against VanA strain of E. faecium; Range is 0.03-2 ug/mL; assay type: functional
Enterococcus faecalis = experiment: Inhibitory activity against VanA strain of E. faecalis; Range is 0.03-2 ug/mL; assay type: functional
Pseudomonas aeruginosa = experiment: Antibacterial activity against Pseudomonas aeruginosa was determined; Active; assay type: functional, organism-based

CC[C@H](C)[C@H](NC(=O)CN)C(=O)NCC(=O)N[C@@H](CCCCN)C(=O)N[C@@H](Cc1ccccc1)C(=O)N[C@@H](CC(C)C)C(=O)N[C@@H](Cc1cnc[nH]1)C(=O)N[C@@H](CO)C(=O)N[C@@H](C)C(=O)NCC(=O)N[C@@H](CCCCN)C(=O)N[C@@H](Cc1ccccc1)C(=O)NCC(=O)N[C@@H](CCCCN)C(=O)N[C@@H](C)C(=O)N[C@@H](Cc1ccccc1)C(=O)N[C@H](C(=O)NCC(=O)N[C@@H](CCC(=O)O)C(=O)N[C@H](C(=O)N[C@@H](CCSC)C(=O)N[C@@H](CCCCN)C(=O)N[C@@H](CO)C(=O)O)[C@@H](C)CC)C(C)C [MAGAININ I] (H-GIGKFLHSAGKFGKAFVGEIMKS-OH)
MIC [1]: 5 µg/mL (≈ 2.07 µM)

CC(C)CC/C=C\C=C/C(=O)NC(CC(N)=O)C(=O)CC1C(=O)N[C@@H](c2ccc(O)cc2)C(=O)N[C@@H](CCCN)C(=O)N[C@@H]([C@@H](C)O)C(=O)N[C@@H](c2ccc(O)cc2)C(=O)N[C@@H](c2ccc(O)cc2)C(=O)N[C@@H]([C@@H](C)O)C(=O)N[C@@H](Cc2ccccc2)C(=O)N[C@@H](CCCN)C(=O)N[C@@H](c2ccc(O[C@H]3OC(CO)[C@@H](O)[C@@H](O)[C@@H]3O[C@H]3O[C@@H](CO)[C@@H](O)[C@H](O)[C@H]3O)cc2)C(=O)N[C@@H]([C@@H](C)O)C(=O)N[C@@H](c2ccc(O)cc2)C(=O)NCC(=O)N[C@@H](CC(C)C)C(=O)N[C@@H](C)C(=O)N[C@@H](c2ccc(O)c(Cl)c2)C(=O)OC1C(N)=O (stereo partly specified) ([Hpg][Orn]T[Hpg][Hpg]TF[Orn][X1]T[Hpg]GLA[Hpg(3-Cl)]; linker N-C via X4)
MIC90 [2]: ≤ 0.25 µg/mL | MIC90 [3]: ≤ 0.25 µg/mL | MIC90 [4]: ≤ 0.25 µg/mL | MIC90 (Enterococcus): 0.5 µg/mL (≈ 0.195 µM)

CC[C@H]1OC(=O)[C@H](C)[C@@H](O[C@H]2C[C@@](C)(OC)[C@@H](O)[C@H](C)O2)[C@H](C)[C@@H](O[C@@H]2O[C@H](C)C[C@H](N(C)C)[C@H]2O)[C@](C)(O)C[C@@H](C)CN(C)[C@H](C)[C@@H](O)[C@]1(C)O
Activity (Pasteurella multocida): Active | Activity [5]: Active | Activity [6]: Active | Activity (Haemophilus influenzae [7]): Active | Activity (Streptococcus sp.): Active | Activity (Chlamydia): Active

CN(C)c1ccc(O)c2c1C[C@H]1C[C@H]3[C@H](N(C)C)C(O)=C(C(N)=O)C(=O)[C@@]3(O)C(O)=C1C2=O [MINOCYCLINE]
MIC90 (Staphylococcus aureus [8]): 16 µg/mL (≈ 35 µM)

CC(=O)NC[C@H]1CN(c2ccc(N3CCOCC3)c(F)c2)C(=O)O1 [LINEZOLID]
MIC90 (Staphylococcus aureus [9]): 4 µg/mL (≈ 11.9 µM) | MIC90 (Enterococcus faecium [10]): 4 µg/mL (≈ 11.9 µM) | MIC90 [11]: 2 µg/mL (≈ 5.93 µM) | MIC90 (Haemophilus influenzae [12]): 16 µg/mL (≈ 47.4 µM) | MIC90 (Streptococcus pneumoniae): 1 µg/mL (≈ 2.96 µM) | MIC90 (Bacteria): 0.5 µg/mL (≈ 1.48 µM) | MIC90 (Moraxella catarrhalis): 4 µg/mL (≈ 11.9 µM) | MIC90 [13]: 2 µg/mL (≈ 5.93 µM) | MIC90 (Bacteroides fragilis): 4 µg/mL (≈ 11.9 µM) | MIC90 (Streptococcus pyogenes): 2 µg/mL (≈ 5.93 µM) | MIC90 (Staphylococcus aureus [8]): 4 µg/mL (≈ 11.9 µM)

CN(C)[C@@H]1C(=O)C(C(N)=O)=C(O)[C@@]2(O)C(=O)C3=C(O)c4c(O)cccc4[C@H](CSCCCCl)C3[C@H](O)C12 (stereo partly specified)
MIC90 (Staphylococcus aureus [8]): 2 µg/mL (≈ 3.62 µM)

CN[C@H](CC(C)C)C(=O)N[C@H]1C(=O)N[C@@H](CC(N)=O)C(=O)N[C@H]2C(=O)N[C@H]3C(=O)N[C@](C)(C(=O)N[C@H](C(=O)O)c4cc(O)cc(O)c4-c4cc3ccc4O)[C@H](C[C@H]3C[C@](C)(N)[C@@H](O)[C@H](C)O3)c3ccc(c(Cl)c3)Oc3cc2cc(c3O[C@@H]2O[C@H](CO)[C@@H](O)[C@H](O)[C@H]2O[C@@H]2C[C@](C)(NCc3ccc(-c4ccc(Cl)cc4)cc3)[C@@H](O)[C@H](C)O2)Oc2ccc(cc2Cl)[C@H]1O
MIC [14]: 0.016 µg/mL (≈ 0.00886 µM) | MIC (Enterococcus faecium [15]): 0.03 µg/mL (≈ 0.0166 µM) | MIC (Enterococcus faecalis): 0.03 µg/mL (≈ 0.0166 µM) | MIC (Streptococcus pneumoniae): < 0.008 µg/mL | MIC (Streptococcus pyogenes): < 0.06 µg/mL | MIC (Staphylococcus aureus [8]): ≤ 0.5 µg/mL

CN[C@H](CC(C)C)C(=O)N[C@H]1C(=O)N[C@@H](CC(N)=O)C(=O)N[C@H]2C(=O)N[C@H]3C(=O)N[C@](C)(C(=O)N[C@H](C(=O)O)c4cc(O)cc(O)c4-c4cc3ccc4O)[C@H](C[C@H]3C[C@](C)(N)[C@@H](O)[C@H](C)O3)c3ccc(c(Cl)c3)Oc3cc2cc(c3O[C@@H]2O[C@H](CO)[C@@H](O)[C@H](O)[C@H]2O[C@@H]2C[C@](C)(NCc3ccc(Oc4ccccc4)cc3)[C@@H](O)[C@H](C)O2)Oc2ccc(cc2Cl)[C@H]1O
MIC [14]: 0.016 µg/mL (≈ 0.00895 µM) | MIC (Enterococcus faecium [15]): 0.03 µg/mL (≈ 0.0168 µM) | MIC (Enterococcus faecalis): 0.03 µg/mL (≈ 0.0168 µM) | MIC (Streptococcus pneumoniae): < 0.008 µg/mL | MIC (Streptococcus pyogenes): < 0.06 µg/mL | MIC (Staphylococcus aureus [8]): ≤ 0.5 µg/mL

CCC/C=C\C=C/C(=O)NC(CC(N)=O)C(=O)CC1C(=O)N[C@@H](c2ccc(O)cc2)C(=O)N[C@@H](CCCN)C(=O)N[C@@H]([C@@H](C)O)C(=O)N[C@@H](c2ccc(O)cc2)C(=O)N[C@@H](c2ccc(O)cc2)C(=O)N[C@@H]([C@@H](C)O)C(=O)N[C@@H](Cc2ccccc2)C(=O)N[C@@H](CCCN)C(=O)N[C@@H](c2ccc(O[C@H]3OC(CO)[C@@H](O)[C@@H](O)[C@@H]3O[C@H]3O[C@@H](CO)[C@@H](O)[C@H](O)[C@H]3O)cc2)C(=O)N[C@@H]([C@@H](C)O)C(=O)N[C@@H](c2ccc(O)cc2)C(=O)NCC(=O)N[C@@H](CC(C)C)C(=O)N[C@@H](C)C(=O)N[C@@H](c2ccc(O)c(Cl)c2)C(=O)OC1C(N)=O (stereo partly specified) ([Hpg][Orn]T[Hpg][Hpg]TF[Orn][X1]T[Hpg]GLA[Hpg(3-Cl)]; linker N-C via X3)
MIC90 [2]: ≤ 0.25 µg/mL | MIC90 [3]: ≤ 0.25 µg/mL | MIC90 [4]: ≤ 0.25 µg/mL | MIC90 (Enterococcus): 0.5 µg/mL (≈ 0.197 µM)

Cc1nc(SCC2=C(C(=O)O)N3C(=O)[C@@H](NC(=O)/C(=N\OCc4cc(=O)c(O)cn4O)c4csc(N)n4)[C@H]3CS2)sc1C(=O)O
Activity (Pseudomonas aeruginosa): Active
